Patent publication US20060234971A1 (priority 2005, published 2006)
Where “and” joins values, the source holds several entries; their conditions need not be identical. Equal entries are not always repeated. Where two headings read alike, the source gives them in different places. Peptide text beside a SMILES is read from it. * marks the point of attachment. Cbz = O=C(OCc1ccccc1)*; CH2F = FC*

How the values were obtained:
[1] = test system: C1 production in SMB cells; format: cell-based, mouse
[2] = test system: C2 production in SMB cells; test: cells; format: cell-based, mouse; settings: for IC50: read-out: concentration producing 50% inhibition of C2 accumulation (IC50)
[3] = test system: prion replication in SMB cells; settings: mouse, in vivo
[4] = test system: PrP^Sc accumulation in ScN2a cells; settings: cited from earlier work
[5] = test system: calpain-mediated cleavage of PrP in SMB cells; format: cell-based, mouse

With “Cbz-Leu-Leu-Tyr-CH2F [calpain inhibitor IV]” the “C1 levels” value [1] was “C1 levels declined”, the “C1 levels higher than control treated SMB cells” value [1] was about 2 fold and the “cell toxicity / cell survival” value (SMB cells) was “cell toxicity is not triggered”. The “effect on production of C2” value [2] was “apparently complete elimination of C2” and the IC50 [2] was 450 nM.

With `CC(C)[C@H](NC(=O)OCc1ccccc1)C(=O)N[C@H](C=O)Cc1ccccc1` [MDL28170, Carbobenzoxy-valinyl-phenylalaninal] (Cbz-Val-Phe-aldehyde) the “C1 levels” value [1] was “increased to levels similar to calpain inhibitor IV-treated SMB cells”, the “cell toxicity / cell survival” value (SMB cells) was “cell toxicity is not triggered” and the “prion titers in treated SMB cells” value [3] was “reduced prion titers”. The C2 by immunoblotting [2] was “undetectable”, the “reduction in C2” value [2] was 63±19.7% and 75±6.8% and the IC50 ([2]; Mus musculus, SMB) was about 4000 nM.

For `CC(=O)N[C@@H](CC(C)C)C(=O)N[C@@H](CC(C)C)C(=O)N[C@H](C=O)CCCNC(=N)N` [leupeptin], the “PrP^Sc accumulation in ScN2a cells” value [4] is given as “affected PrP^Sc accumulation”.

For `CCCC[C@@H](C=O)NC(=O)[C@H](CC(C)C)NC(=O)OCc1ccccc1` [calpeptin, Benzyloxycarbonylleucyl-norleucinal], the “cell toxicity / cell survival” value (SMB cells) was “cell toxicity is not triggered” and the “reduction in C2” value [2] was 71±7.1%.

In the case of `CNc1ccc2oc(C[C@H]3O[C@@]4(CC[C@H]3C)O[C@H]([C@H](C)C(=O)c3ccc[nH]3)[C@H](C)C[C@H]4C)nc2c1C(=O)O` [A23187], the “increase of C2” value [5] is reported as 3.5 fold.

With `C[C@H](CCC(=O)O)C[C@H](C)C[C@H](C)C(=O)/C=C(\O)[C@H](C)C[C@H](C)C/C=C/[C@@H](C)[C@@H](O)[C@@H](C)[C@@H](O)C[C@@H]1CC[C@@](C)([C@H]2CC[C@@](C)([C@@H](C)O)O2)O1` [ionomycin] the “increase in C2 levels compared to control” value [5] was about 7 fold.

With “Z-FG-NHO-BzOME [cathepsin inhibitor III]” the “effect on production of C2” value [2] was “unaffected”.

For calpastatin, the “levels of C2 lower than control transfected cells” value [2] was 64±15%.

For “Z-FY(t-Bu)-DMK [cathepsin L inhibitor III]”, the “effect on production of C2” value [2] was “unaffected”.
